Experimental data: patent publication US5627156A, “Polypeptide agonists for human interleukin-8” (University of Nebraska Board of Regents, priority 1994, dated 1997)
pKd: −log10 of the molar value. Where no end group is shown, it is not given here.

Assays:
[1] = system: peritoneal cells (PMNs, monocytes/macrophages, lymphocytes); assay: In vivo chemotactic activity into the peritoneum after ip injection; parameters: species or system C57BL/6 mice
Protocol: (§1) A stock solution of 5 mg/ml of Analog 1 was prepared using Dulbecco's phosphate buffered saline D-PBS. The solution was made 5× to compensate for the injection of 0.2 ml ip. The mice were dosed at various times with various doses of analog 1. The ip administration was with a volume of 0.2 ml. In addition, excipient control animals were injected.
(§2) The mice used for the study were C57BL/6 females, which were obtained from Jackson Laboratories. The mice used in these studies were at 8-10 weeks of age and weighed 15-18 g. The mice were housed in conventional cages, fed pelleted food and given water ad libitum.
The mice were sacrificed by ether overdose, the ventral skin reflected and the peritoneum lavaged with three 5 ml lavages of calcium-, magnesium-freeHBSS. At one, two, four, eight and 24 hours, following injection, three to five mice and/or control mice were lavaged and the cells collected in 15 ml tubes. The peritoneal cells were then centrifuged and counted. In addition, a differential was done on the peritoneal cells in a cytospin preparation. For the cytospin, 25 μl of bovine albumin (Sigma Lot #70H0183) was first placed in the bottom of the chamber, and 100 μl of cell suspension (100,000 cells) added. It was spun at 1000 rpm for 5 minutes and then left to dry. Next, they were placed in leukostat fixative solution for 5 seconds followed by 45 seconds in Leukostat solution 1 and 45 seconds in Leukostat solution 2 and finally washed in deionized H2 O for 5 seconds and allowed to dry. The slides were analyzed under microscope for differentials.

[2] = system: peripheral blood cells (PMNs, monocytes, lymphocytes); assay: In vivo peripheral blood (PBL) cellularity after ip injection; parameters: species or system C57BL/6 mice; conditions: single ip injection
Protocol: as §1, §2
At various times following injection of Analog 1 the mice were bled from retinal orbital plexus with 40 μl removed into heparanized capillary tubes and the blood analyzed using a Serona Baker 9000 Blood analyzer. In addition, blood films were made and differentials undertaken on at least 200 cells/sample.

[3] = system: Polymorphonuclear leukocytes (PMNs); assay: Neutrophil Ca release by flow cytometry (Fluo-3); format: cell-based, human
Protocol: Polymorphonuclear leukocytes (≥95% neutrophils, PMNs) were isolated from heparinized (10 U/ml) blood collected from healthy volunteers. Erythrocytes were removed by 6% dextran sedimentation for 30 minutes at room temperature, and then the supernatant was subjected to Ficoll (Ficoll-Paque, Pharmacia LKB, Uppsala, Sweden) density gradient centrifugation. PMNs were obtained from the pellet. Contaminated erythrocytes were eliminated by one cycle of hypotonic lysis. After an additional washing step the cells were counted and adjusted to a final concentration of 5×10^6 /ml in RPMI 1640 (Gibco, Grand Island, N.Y.). Fluo-3 Loading--The loading procedure with Fluo-3 (Molecular Probes, Eugene, Oreg.) was carried out with PMNs suspended at a density of 5×10^6 /ml in fresh RPMI 1640 containing 2.0 μM Fluo-3 AM (prediluted in dimethyl sulfoxide; Sigma Chemicals) in polypropylene tubes (Falcon 2063, Becton Dickinson). […]
Measurement of [Ca^2+ ] in Flow Cytometry--Before addition of the stimuli the fluorescence channel of the FAGScan Plus (Becton Dickinson) was adjusted to find the basal fluorescence level of loaded but unstimulated PMNs. The samples were excited by an argon laser at 488 nm and emission was measured at 525 nm (green fluorescence, channel FL1). […] The fluorescence of Fluo-3-loadedcells was measured in arbitrary fluorescence units of mean channel fluorescence (channel FL1). […]

[4] = system: receptor sites on neutrophils; conditions: cited from earlier work
[5] = Biological activity of the analog compared to analog 1 (test not specified); conditions: C-terminally truncated, residues 4 to 17
Protocol: The biological activity of an analog of the invention is determined by comparing the analog with naturally occurring IL-8.

With “ELRCQCIKTYSKPFHPK (cysteine pairing not given here) [Analog 1, structural mimic of IL-8 from amino acid residues 4 to 20]” the “kinetics of the in vivo chemotactic response in the peritoneum” value ([1]; ip injection of 10 μg, FIG. 7) was “greatest increase observed was in the number of macrophages and PMNs”, the “primary cell type elicited in the peritoneum” value ([1]; ip injection, FIG. 3) was “PMNs” and the “increase in PMN into the peritoneum” value ([1]; ip injection, FIG. 4) was “four-fold”. The “increase in monocyte/macrophages into the peritoneum” value ([1]; ip injection, FIG. 4) was “two-fold”, the “dose of optimal activity on peritoneal cellularity” value ([1]; single ip injection, 0.1-500 μg/animal, FIG. 1) was 10 μg/animal and the PBL cellularity ([2]; FIG. 2) was “significant increase”. For the same substance, the “frequency of PMNs in the peripheral blood” value ([2]; FIG. 5) was “increase”, the “absolute number of PMNs and monocytes in the peripheral blood” value ([2]; FIG. 6) was “significant increase” and the “neutrophil Ca concentration” value ([3]; FIG. 10A and B, concentration not given) was “induced a change in neutrophil Ca concentrations”.

For Interleukin 8 [IL-8], the “neutrophil Ca concentration” value ([3]; 77 amino acid IL-8 at 10^-6 M, FIG. 8B) is given as “the majority of neutrophils showed an increase in calcium concentration” and the pKd [4] is given as 9.70.

For “Glu-Leu-Arp-Cys-Gln-Cys-Ile-Lys-Thr-Tyr-Ser-Lys-Pro-Phe (ELRCQCIKTYSKPF) [Analog 2, structural mimic of human IL-8 from amino acid residues 4 to 17]”, the “activity compared to analog 1” value [5] was “slight loss of activity”.
